“Also recorded” adds a separate entry of the source.
Legend:
NT binding sites = details: rat, 5–9 days after the birth; ref Lépée-Lorgeoux et al., 1999; cited from earlier work
Text: This is similar to that reported previously for somatostatin and benzodiazepine binding sites ([Najimi et al., 1991], [2001]). […] We cannot exclude also that these hypothalamic structures have not yet completed their neuronal maturation ([Kopp et al., 1992]). Studies on older ages should reveal the ...

NT2 receptor = details: reference not given; cited from earlier work
[1] = molecular target: T1, NT binding sites, human hypothalamus (neonate/infant) (Homo sapiens, UniProt P30989); assay: Levocabastine competition with specific 125I-NT binding (competition experiments and autoradiography); details: all hypothalamic nuclei and areas in all cases
T1 construct: The frozen hypothalami were then sliced as 20 μm thick coronal sections; from tissue; host or cells: postmortem human neonate/infant hypothalamus, 20 μm frozen coronal sections
T1 sequence (P30989 whole entry): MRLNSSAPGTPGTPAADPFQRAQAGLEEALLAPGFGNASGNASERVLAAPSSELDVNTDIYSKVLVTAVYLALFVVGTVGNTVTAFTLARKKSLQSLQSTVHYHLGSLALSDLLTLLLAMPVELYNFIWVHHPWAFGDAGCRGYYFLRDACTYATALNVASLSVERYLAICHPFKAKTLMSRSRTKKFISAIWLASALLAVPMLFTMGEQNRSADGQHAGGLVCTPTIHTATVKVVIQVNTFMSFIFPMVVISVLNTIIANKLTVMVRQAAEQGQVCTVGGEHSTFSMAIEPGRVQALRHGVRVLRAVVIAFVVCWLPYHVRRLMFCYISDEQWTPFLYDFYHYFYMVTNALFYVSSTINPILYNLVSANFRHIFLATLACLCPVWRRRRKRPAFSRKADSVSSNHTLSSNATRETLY
Procedure: After incubation, the slides were washed with ice cold buffer four times for 2 min each and rapidly dried with cold air. Labeled sections and iodinated standards (Amersham, Courtaboeuf Cedex, France) were then apposed to 3H sensitive Ultrofilm (Amersham) in Amersham exposure cassettes. After 2 weeks exposure in dark conditions at 4°C, the film was developed in Kodak D19 (Eastman Kodak, Rochester, NY, USA) for 3 min, dipped in water and fixed with Kodak rapid fixer for 10 min.
Kinetics (IC50 and KD) analysis was computed by the method of [Parker and Waud (1971)].

Structure (SMILES) | number of NT binding sites after blockade of neurotransmission (NT binding sites) | affinity for the NT2 receptor, in words (NT2 receptor) | inhibition of specific 125I-NT binding by levocabastine [1]
COc1cccc(OC)c1-c1cc(C(=O)NC2(C(=O)O)C3CC4CC(C3)CC2C4)nn1-c1ccnc2cc(Cl)ccc12 (stereo not drawn) [SR 48692] | increases greatly the number of NT binding sites |  | 
C[C@@H]1CN([C@H]2CC[C@](C#N)(c3ccc(F)cc3)CC2)CC[C@]1(C(=O)O)c1ccccc1 [levocabastine] |  | has affinity for the NT2 receptor | insensitivity to levocabastine; also recorded: did not inhibit specific binding of ^125I-NT

From PMC4160091 (Frontiers in Cellular Neuroscience, 2014)
